The target of data set [1] is T1, hydroquinone dioxygenase (HQDO) from Sphingomonas sp. strain TTNP3 (Sphingomonas sp. TTNP3, UniProt F8TW82+F8TW83).
T1 construct: gene hqdB; native enzyme purified from nonylphenol-induced cells; untagged; alpha2beta2 heterotetramer, 120 kDa by SEC, bands 38 kDa and 19 kDa; b63 order implies HqdA small and HqdB large, abstract order of identities contradicts
T1 sequence (F8TW83 1-341): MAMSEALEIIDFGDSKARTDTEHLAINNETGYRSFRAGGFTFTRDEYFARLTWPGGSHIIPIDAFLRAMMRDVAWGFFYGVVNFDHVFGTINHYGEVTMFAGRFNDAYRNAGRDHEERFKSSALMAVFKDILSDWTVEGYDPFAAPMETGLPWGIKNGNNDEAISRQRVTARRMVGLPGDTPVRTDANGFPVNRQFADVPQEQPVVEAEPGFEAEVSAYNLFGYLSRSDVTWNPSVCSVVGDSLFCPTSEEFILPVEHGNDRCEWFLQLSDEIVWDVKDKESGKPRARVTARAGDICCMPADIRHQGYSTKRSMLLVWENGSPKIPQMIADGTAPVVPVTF
T1 sequence (F8TW82 1-170): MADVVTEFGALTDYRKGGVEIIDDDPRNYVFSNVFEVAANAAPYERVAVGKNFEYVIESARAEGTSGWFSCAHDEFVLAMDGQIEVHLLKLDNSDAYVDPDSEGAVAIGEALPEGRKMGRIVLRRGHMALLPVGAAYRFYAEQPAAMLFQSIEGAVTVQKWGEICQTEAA
As to the kind of experiment: residual activity on HQ with inhibitor. It counts as biochemical. An excerpt:
residual activity on HQ with inhibitor on hydroquinone dioxygenase (HQDO) from Sphingomonas sp. strain TTNP3

Substrate in data set [2]: Oc1ccc(O)cc1
As to the kind of experiment: purified protein. To be noted: air-saturated 50 mM Tris, pH 7.0, 25°C, kcat per heterotetramer, suicide deactivation by substrate. Type of data set: biochemical, Sphingomonas sp. TTNP3.

For `O=C(O)c1ccc(O)c(O)c1` [3,4-Dihydroxybenzoate], in data set [1], the activity at 200 µM was 94 ± 4.6%.

In data set [1], `O=C(O)/C=C/c1ccc(O)cc1` [4-Coumaric acid] came in with an activity at 200 µM of 97 ± 1.9%.

In turn, `O=C(O)c1ccc(O)cc1` [4-Hydroxybenzoate] came in with an activity at 200 µM in data set [1] of 46 ± 0.4%.

In the case of `N#CCc1ccc(O)cc1` [4-Hydroxybenzylcyanide], the “Activity (%)” value in data set [1] (2 µM, substrate HQ, compound named 4-hydroxybenzonitrile in text, 4-hydroxybenzylcyanide in table) was 16 ± 0.2%.

`Oc1ccc(S)cc1` [4-Mercaptophenol] yielded an activity at 20 µM in data set [1] of 5%.

Regarding `O=[N+]([O-])c1ccc(O)cc1` [4-Nitrophenol], in data set [1], the activity at 200 µM is 27 ± 1.2%.

For `O=C1C=CC(=O)C=C1` [Benzoquinone], the activity at 20 µM in data set [1] turned out to be 16 ± 0.3%.

In data set [1], `O=C(O)/C=C/c1ccc(O)c(O)c1` [Caffeic acid] gave an activity at 80 µM of 98 ± 2.5%.

The molecule `Oc1ccccc1O` [Catechol] had an activity at 200 µM in data set [1] of 93 ± 1.3%.

The molecule `Oc1ccccc1` [Phenol] showed an activity at 200 µM in data set [1] of 98 ± 1.7%.

The molecule `Oc1cccc(O)c1` [Resorcinol] returned an activity at 200 µM in data set [1] of 99 ± 0.5%.

Regarding `COc1cc(C(=O)O)ccc1O` [Vanillate], in data set [1], the activity at 200 µM came to 86 ± 1%.

For `COc1cc(C=O)ccc1O` [Vanillin], the activity at 100 µM in data set [1] came to 18 ± 7.4%.

Consider `COc1cc(CO)ccc1O` [Vanillyl alcohol], for which the activity at 200 µM in data set [1] was found to be 62 ± 1%.

B1: hydroquinone dioxygenase (HQDO) from Sphingomonas sp. strain TTNP3 (Sphingomonas sp. TTNP3) (protein)
chain 1: MAMSEALEIIDFGDSKARTDTEHLAINNETGYRSFRAGGFTFTRDEYFARLTWPGGSHIIPIDAFLRAMMRDVAWGFFYGVVNFDHVFGTINHYGEVTMFAGRFNDAYRNAGRDHEERFKSSALMAVFKDILSDWTVEGYDPFAAPMETGLPWGIKNGNNDEAISRQRVTARRMVGLPGDTPVRTDANGFPVNRQFADVPQEQPVVEAEPGFEAEVSAYNLFGYLSRSDVTWNPSVCSVVGDSLFCPTSEEFILPVEHGNDRCEWFLQLSDEIVWDVKDKESGKPRARVTARAGDICCMPADIRHQGYSTKRSMLLVWENGSPKIPQMIADGTAPVVPVTF
chain 2: MADVVTEFGALTDYRKGGVEIIDDDPRNYVFSNVFEVAANAAPYERVAVGKNFEYVIESARAEGTSGWFSCAHDEFVLAMDGQIEVHLLKLDNSDAYVDPDSEGAVAIGEALPEGRKMGRIVLRRGHMALLPVGAAYRFYAEQPAAMLFQSIEGAVTVQKWGEICQTEAA
notes: native enzyme purified from nonylphenol-induced cells; untagged; alpha2beta2 heterotetramer, 120 kDa by SEC, bands 38 kDa and 19 kDa; b63 order implies HqdA small and HqdB large, abstract order of identities contradicts
By Km is commonly meant the concentration of substrate that gives half-maximal velocity. A word on the kcat: it is the number of substrate molecules converted per active site and unit of time at saturation. Take B1: in data set [2], the Km was found to be 2.2 ± 0.2 µM and the kcat came out at 13.5 s⁻¹.
